Data from the supplement of paper PMC4862054.

Legend:
Assay in all cases: normalised response (% of control), CellTiter-Glo; higher = more viable cells (100 = DMSO, 0 = benzethonium chloride kill control)
Conditions in all cases: incubation time: 72 h
BT-474 = test system: BT-474
Method in brief: (§1)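 Breast cancer cell lines were exposed for 72 h in 384-well plates to compound at 5 concentrations, 10-fold apart, covering a 10,000-fold range fixed for each compound. Plates were read for CellTox Green fluorescence and CellTiter-Glo luminescence and normalised to 0.1 % DMSO (100) and a positive kill control (0). Each value is the normalised signal at one concentration of the series.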

BT-549 = test system: BT-549
Method in brief: as §1

CAL-120 = test system: CAL-120
Method in brief: as §1

CAL-148 = test system: CAL-148
Method in brief: as §1

CAL-51 = test system: CAL-51
Method in brief: as §1

CAL-85-1 = test system: CAL-85-1
Method in brief: as §1

DU-4475 = test system: DU-4475
Method in brief: as §1

HCC1143 = test system: HCC1143
Method in brief: as §1

HCC1599 = test system: HCC1599
Method in brief: as §1

HCC1937 = test system: HCC1937
Method in brief: as §1

HDQ-P1 = test system: HDQ-P1
Method in brief: as §1

Hs578T = test system: Hs578T
Method in brief: as §1

MCF-10A = test system: MCF-10A
Method in brief: as §1

MDA-MB-231 = test system: MDA-MB-231
Method in brief: as §1

MDA-MB-436 = test system: MDA-MB-436
Method in brief: as §1

MDA-MB-453 = test system: MDA-MB-453
Method in brief: as §1

MDA-MB-468 = test system: MDA-MB-468
Method in brief: as §1

MFM-223 = test system: MFM-223
Method in brief: as §1

SK-BR-3 = test system: SK-BR-3
Method in brief: as §1

Compound | normalised response (BT-474) [%] | normalised response (BT-549) [%] | normalised response (CAL-120) [%] | normalised response (CAL-148) [%] | normalised response (CAL-51) [%] | normalised response (CAL-85-1) [%] | normalised response (DU-4475) [%] | normalised response (HCC1143) [%] | normalised response (HCC1599) [%] | normalised response (HCC1937) [%] | normalised response (HDQ-P1) [%] | normalised response (Hs578T) [%] | normalised response (MCF-10A) [%] | normalised response (MDA-MB-231) [%] | normalised response (MDA-MB-436) [%] | normalised response (MDA-MB-453) [%] | normalised response (MDA-MB-468) [%] | normalised response (MFM-223) [%] | normalised response (SK-BR-3) [%]
CCS(=O)(=O)c1cccc(-c2cc(C(=O)NC3CCN(C)CC3)c(C)c3[nH]c4ncc(C)cc4c23)c1 [TAK-901] (1 nM) | 98.5 | 101 | 98.1 | 108 | 87.8 | 98 | 108 | 108 | 117 | 94.2 | 96 | 103 | 113 | 101 | 95.5 | 97 | 110 | 112 | 100
Cc1cc(C(C)Nc2ccccc2)c2nc(N3CCOCC3)cc(=O)n2c1 (configuration not stated) [TGX-221] (1 nM) | 93.1 | 99.4 | 95.8 | 95.5 | 109 | 92.1 | 95.2 | 93.8 | 89.6 | 97.6 | 96.2 | 98.4 | 96.5 | 92.7 | 84 | 98.5 | 92.8 | 101 | 97
Cc1cc(C(C)Nc2ccccc2)c2nc(N3CCOCC3)cc(=O)n2c1 (configuration not stated) [TGX-221] (10 nM) | 92.5 | 95.2 | 94.5 | 95 | 96.5 | 98.2 | 97.9 | 102 | 98.4 | 98.8 | 95.4 | 97.6 | 92.3 | 92.2 | 98 | 98.6 | 94.7 | 96.3 | 93.2
COc1cc(Nc2ncc(F)c(Nc3ccc4c(n3)NC(=O)C(C)(C)O4)n2)cc(OC)c1OC [Tamatinib] (1 nM) | 98.5 | 101 | 102 | 102 | 105 | 97.9 | 106 | 108 | 114 | 98.5 | 101 | 111 | 111 | 107 | 105 | 121 | 101 | 108 | 112
COc1cc(Nc2ncc(F)c(Nc3ccc4c(n3)NC(=O)C(C)(C)O4)n2)cc(OC)c1OC [Tamatinib] (10 nM) | 100 | 101 | 102 | 105 | 98.3 | 103 | 106 | 108 | 95.1 | 102 | 103 | 113 | 107 | 107 | 95.9 | 108 | 97.6 | 111 | 100
C[C@@H]1CCN(C(=O)CC#N)C[C@@H]1N(C)c1ncnc2[nH]ccc12 [Tofacitinib] (0.5 nM) | 106 | 95.6 | 99 | 113 | 71.3 | 107 | 117 | 98 | 102 | 97.3 | 103 | 100 | 111 | 104 | 102 | 103 | 103 | 103 | 113
CCCC(CCC)C(=O)O [Valproic acid] (100 nM) | 98.9 | 99.7 | 103 | 102 | 103 | 97.1 | 96.2 | 102 | 88.9 | 96.4 | 101 | 104 | 101 | 105 | 106 | 109 | 97.1 | 95.5 | 95.8
FC(F)c1nc2ccccc2n1-c1nc(N2CCOCC2)nc(N2CCOCC2)n1 [ZSTK474] (1 nM) | 98.8 | 104 | 97.7 | 96.8 | 81.5 | 92.5 | 96.6 | 96.8 | 101 | 100 | 101 | 102 | 106 | 99.7 | 97.9 | 106 | 100 | 99 | 97.7
